Results on four compounds are retold here after patent US20240374558A1, “PREPARATION OF PHENE[…] […] STEREOISOMERS THEREOF AND PRECURSORS THEREOF” (priority 2022, published 2024).

Data set [1] addresses T1, norepinephrine transporter (NET) (Rattus norvegicus, UniProt Q63380).
T1 construct: hippocampus plus overlying occipital cortex for norepinephrine transporter assays; from tissue
Nature of the data set: Competition radioligand binding, [3H]Nisoxetine, brain synaptosome membranes. On the set-up: species or system rat (Sprague Dawley). The text has this: Rat brain (Sprague Dawley, 200-250 g) synaptosomes were isolated from midbrain and hindbrain for serotonin transporter assays, striatum for dopamine transporter assays, and hippocampus plus overlying occipital cortex for norepinephrine transporter assays. Radioligands used were: [^3H]Citalopram 81.4 Ci/mmol (PerkinElmer NET1039250UC; Lot No. 2960876). [3H]WIN35428 82.8 Ci/mmol (PerkinElmer NET1033250UC; Lot No. 2891473). [^3H]Nisoxetine 79.2 Ci/mmol (PerkinElmer NET1084250UC; Lot No. 2970324). Non-specific compounds used were: Citalopram (Tocris Bioscience 1427). JHW007 (Tocris Bioscience 4351). Nomifensine (Abcam abl46004). Test Compounds for the study were: racemic methylone HCl; (R)-methylone HCl; (S)-methylone HCl.
For membrane preparations, rat brains were dissected, tissue was added to ice-cold lysis buffer (50 mM Tris HCl; 5 mM MgCl2; 5 mM EDTA; protease inhibitor cocktail) and homogenized. […] A sample of the homogenate was analyzed for protein content using the MERCK® BCA assay. […]
Competition binding assays were carried out in 96-well polypropylene plates in a final volume of 250 μL per well. […] Filters were then dried under a warm air stream, sealed in polyethylene, scintillation cocktail added, and the radioactivity counted in a WALLAC® TriLux 1450 MicroBeta counter. […] Ki was subsequently calculated using the ChengPrusoff equation.

The next data set addresses NET (Rattus norvegicus, UniProt Q63380). Nature of the data set: NE release study. Type of data set: biochemical.
For data set [2], the system named is rat forced swim test (FST). As to the kind of experiment: Rat forced swim test (FST). Type of data set: in vivo. The following applies: 10 mg/kg, IP. As to the method: The forced swim test (FST) is a classic model to assess the antidepressant-like activity of compounds that has been in use for over 40 years (Porsolt et al. (1977) Nature 266:730-732; Detke et al. (1995) Psychopharmacology 121:66-72). […] A single dose of 5 mg/kg methylone reduces immobility by approximately 50% compared to vehicle-treated controls, whereas a 15 mg/kg dose reduces immobility by nearly 100%. Accompanying changes in climbing and/or swimming behavior reflect noradrenergic and serotonergic activities of methylone, respectively.
All FST studies are performed and scored by an experimenter blind to treatment group and according to standard protocols. Briefly, rats are placed in a circular plexiglass container filled with water. Water temperature is maintained at 22-25° C. and changed for every animal. Day 1 (Training) consists of a 15 min acclimation trial, and Day 2 (Testing, 24 h later) consists of the 5 min test. A time sampling procedure is employed where animals are observed every 5 seconds for the duration of the test session (60 counts or 5 minutes) and scored for immobility (defined as the failure to struggle), swimming (defined as a circular movement around the tank), or climbing (defined as an upwards escape behavior). Data are expressed as the percent of the testing session (e.g., the number of immobility counts divided by 60). A p-value less than 0.05 indicates statistical significance after typical statistical analyses (e.g., unpaired t-test or ANOVA).
To determine that the prodrug and/or enantiomer has an antidepressant-like effect and to compare it to methylone, rats are treated with each compound 30 min prior to testing. Additional tests are run 24, 72, 168 hours post-dose or longer. Effects on Fear Extinction in a Model of Post-Traumatic Stress Disorder (PTSD)
Racemic methylone (10 mg/kg, IP) has a maximal antidepressant-like effect in the rat forced swim test (FST), reducing immobility by nearly 100% compared to vehicle treated controls. […]

The conditions of data set [3]: self-administration, healthy volunteers; Lourdes et al. 2021; cited from earlier work.
For data set [4], the system named is open field test (OFT). Particulars: 5, 10, 20 mg/kg, SC, rats; Stefkovi et al. 2017; cited from earlier work.
Data set [5] has as its system open field test (OFT). Nature of the data set: Open field test (OFT). Also on record: species or system rats. Particulars: rat, in vivo. As to the method: Additional behavioral testing including the elevated plus maze (EPM) and thigmotaxis in the open field test (OFT) are used to assess the anxiolytic effects of methylone and its prodrugs in mice or rats. […] These models are described in greater detail below. Prodrugs are screened in these behaviors to the anxiolytic efficacy of each compound.
Compounds are screened for their effects on both parameters. Briefly, rodents are assessed in a 30 minute OFT using an automated activity monitoring system. Rodents are acclimated to the room 30 minutes before the start of testing. The following parameters are captured: Horizontal distance travelled, overall ambulatory time, and ambulatory counts. Vertical activity (time and counts), Time in the Center vs. Periphery data are reported in 5-minute bins as well as total time.

The subject of another data set is PTSD symptoms. The following applies: clinical case series of 21 individuals; cited from earlier work.
A further data set has as its system mouse model of PTSD. Nature of the data set: Fear extinction in a mouse model of PTSD. Particulars: 30 mg/kg, IP. The format is in vivo. As to the method:
FIGS. 1A-1D: Methylone improves fear extinction recall in a mouse model of PTSD. (FIG. 1A) Schematic of experimental design. A single CS-US (tone-shock) pairing on day 1 was followed by 6 CS presentations in a novel context (context B). Methylone or saline vehicle was injected 30 min prior to extinction training on day 2. On day 3, the time spent freezing to the CS was quantified. […] (FIG. 1C) The time freezing before vs. during each of 6 cues on day 3 (to control for locomotor effects) are shown. There was a significant cue x drug interaction (F(5,130)=2.409, p<0.05). […] N=12 for methylone group (30 mg/kg, IP, orange diamonds) and N=16 for saline control group (black squares). *p<0.05
Effective PTSD treatments facilitate the disassociation between a traumatic memory and the patient's fear response, making cues for the traumatic memory evoke less of a fear response. This is modeled in the mouse fear extinction paradigm which takes place over 3 days. On day 1 (fear conditioning), mice are trained to acquire a “traumatic memory,” namely associating the conditioned stimulus (CS, tone) to the unconditioned stimulus (US, foot shock). On day 2 (extinction training), they are trained to forget the traumatic memory association by presenting the CS 6 times (with no US) in a novel environment. On day 3 (extinction recall), the mice are “asked” if that tone (CS) still elicits a fearful response, as measured by the time spent freezing when the tone is presented. Less time freezing means better extinction recall. Drugs that improve extinction recall reduce freezing time on day 3, and, therefore, show potential as a PTSD treatment.
Using these methods, prodrugs and/or enantiomers are administered to mice and tested for efficacy in the fear extinction model to evaluate their efficacy to treat PTSD and other memory disorders. Anxiolytic Effects in Other Behavioral Anxiety Models

Data set [6] in a line: Pharmacokinetics of methylone after a single IV, PO or IP administration (LC-MS/MS of plasma). The format is in vivo, male Sprague Dawley rats. As to the method: The pharmacokinetic properties of methylone after a single administration intravenously (IV), intraperitoneally (IP), or by oral gavage (PO) in male Sprague Dawley rats has been determined using a liquid chromatography tandem mass spectrometry (LC-MS/MS) method that has been established and validated for methylone in the rat. Rats (n=3 per group) received a single dose of methylone: 5 mg/kg IV, 15 mg/kg IP, or 15 mg/kg PO.
To investigate whether the prodrug extends the half-life or alters other basic pharmacokinetic properties of methylone (e.g., Cmax or Tmax), rats are treated with each prodrug IV, IP, or PO. For each compound, three groups of rats are treated as follows: For group 1, a single dose of methylone is administered to 3 male Sprague-Dawley rats by IV bolus at 5 mg/kg. For group 2, a single dose of methylone is administered to 3 male Sprague-Dawley rats by oral gavage (PO) at 15 mg/kg. For group 3, a single dose of methylone is administered to 3 male Sprague-Dawley rats by IP at 15 mg/kg. For all groups, blood samples are collected from each animal at 0.083, 0.25, 0.5, 1, 2, 4, 8, 12, and 24 hours post-dose for the determination of plasma concentrations. The plasma concentrations are quantified by liquid chromatography tandem mass spectrometry (LC-MS/MS). The bioanalytical assay has been established and validated, providing a lower limit of quantification (LLOQ) of 1 ng/mL and an upper limit of quantification (ULOQ) of 3000 ng/mL for methylone. The plasma concentration-time data are analyzed using Phoenix WinNonlin (version 8.3) to characterize the PK properties of the analyte. The non-compartmental analysis model and the linear/log trapezoidal method are applied to calculating the PK parameters.

Data set [7] is described as follows: XRPD analysis of pre- and post-DVS samples (form stability). The format is physicochemical. Particulars: after DVS 5-95-5% RH. As to the method:
Two lots of methylone HCl samples were submitted to evaluate the stability of the solid forms under various humidity conditions. Dynamic vapor sorption (DVS) analysis was performed to evaluate the kinetic hygroscopicity and assess if variable humidity XRPD would be necessary, as well as to determine the appropriate humidity condition(s) for such XRPD analysis. Both pre- and post-DVS samples were analyzed by conventional XRPD for solid form confirmation or any potential form changes.
Each sample was prepared in a silicon low background holder using light manual pressure to keep the sample surface flat and level with the reference surface of the sample holder. The single crystal Si low background holder has a circular recess (10 mm diameter and about 0.2 mm depth) that holds the sample. The Rigaku Smart-Lab diffraction system used was configured for Bragg-Brentano reflection geometry using a line source X-ray beam. The Bragg-Brentano geometry was controlled by passive divergence and receiving slits with the sample itself acting as the focusing component for the optics.

Read-outs that look alike come from different tables or passages of the source.

T1 sequence (Q63380 1-617): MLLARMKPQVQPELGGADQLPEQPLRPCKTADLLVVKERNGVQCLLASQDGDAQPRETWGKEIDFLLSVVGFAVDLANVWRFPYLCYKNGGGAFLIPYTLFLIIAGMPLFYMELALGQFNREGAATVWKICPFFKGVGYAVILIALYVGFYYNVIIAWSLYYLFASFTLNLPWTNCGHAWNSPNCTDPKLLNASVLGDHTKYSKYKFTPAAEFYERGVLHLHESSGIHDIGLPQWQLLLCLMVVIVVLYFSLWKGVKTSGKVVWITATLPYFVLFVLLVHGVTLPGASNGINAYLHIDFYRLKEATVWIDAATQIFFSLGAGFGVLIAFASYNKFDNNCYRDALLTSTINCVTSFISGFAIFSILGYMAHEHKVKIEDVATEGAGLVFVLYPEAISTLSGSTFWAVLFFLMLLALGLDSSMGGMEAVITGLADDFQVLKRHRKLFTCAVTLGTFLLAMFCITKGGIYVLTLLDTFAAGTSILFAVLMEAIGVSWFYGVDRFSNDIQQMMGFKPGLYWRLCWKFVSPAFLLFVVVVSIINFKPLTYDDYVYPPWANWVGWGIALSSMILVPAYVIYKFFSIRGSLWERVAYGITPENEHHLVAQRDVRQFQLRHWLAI
NET, sequence (Q63380 1-617): as above

For the compound `CNC(C)C(=O)c1ccc2c(c1)OCO2` (racemic) [Racemic methylone, methylone], in data set [1], the IC50 was determined as 3100 nM and the Ki stood at 1460 nM. In addition, the EC50 on NET was found to be 330 nM. In addition, in data set [2], the “reduction of immobility compared to vehicle treated controls” value is roughly 100%.
On to `CNC(C)Cc1ccc2c(c1)OCO2` (centres unmarked) [MDMA, 3,4-methylenedioxymethamphetamine, reference compound], for which the “systolic and diastolic blood pressure” value in data set [3] is reported as “significant increase”.
As for `CNC(C)C(=O)c1ccc2c(c1)OCO2` (centres unmarked) [Methylone, methylone], the “thigmotaxis (time spent hugging the perimeter of the open field)” value in the data set with open field test (OFT) [4] is listed as “reduce thigmotaxis”. Further, in data set [3], the heart rate result is recorded as “increase in heart rate”; the “systolic and diastolic blood pressure” value is given as “significant increase”. For the same compound, in the data set on open field test (OFT) [5], the “locomotor activity in the OFT” value is reported as “increases locomotor activity” and the “time in the center vs the periphery in the OFT” value was “reduces time spent in the center vs the periphery”. Further, the “patients with improved PTSD symptoms” value in the data set with PTSD symptoms is on record as 81%. Moreover, in the data set on mouse model of PTSD, the “fear extinction recall (freezing time during the first cue on day 3) vs saline” value was “significantly improves fear extinction recall” and the “locomotor changes on day 3” value is recorded as “No locomotor changes”. Besides, the “fear extinction recall (freezing time during the first cue on day 3) vs saline” value with mouse model of PTSD (listed as methylone) is “significantly reduced”. Also, in data set [6] (Group 1 (IV), 5 mg/kg), the AUC0-last stood at 1200 ± 88.2 ng·h/mL, the C0 was found to be 3018 ± 666 ng/mL, the Cl was 68.3 ± 5.40 mL/min/kg and the MRT0-last was determined as 0.439 ± 0.026 h. In addition, the Vdss in data set [6] (Group 1 (IV), 5 mg/kg) stood at 1.98 ± 0.230 L/kg. Besides, in data set [6] (Group 2 (PO), 15 mg/kg), the AUC0-last stood at 2765 ± 657 ng·h/mL, the MRT0-last came to 2.99 ± 0.467 h, the T1/2 was 3.23 ± 1.99 h and the Tmax is on record as 1.33 ± 0.577 h. In data set [6] (Group 2 (PO), 15 mg/kg, plasma), the Cmax is listed as 678 ± 243 ng/mL. Besides, in [6] (Group 3 (IP), 15 mg/kg), the AUC0-last amounted to 4305 ± 1179 ng·h/mL and the MRT0-last was 1.07 ± 0.211 h. This compound also came in with a Cmax in [6] (Group 3 (IP), 15 mg/kg, plasma) of 4230 ± 514 ng/mL. In addition, the Tmax in data set [6] (male, Sprague Dawley, rat, plasma, Group 3 (IP), 15 mg/kg, read-out: Tmax) was 0.25 h.
For `CNC(C)C(=O)c1ccc2c(c1)OCO2.Cl` [lot KRR-R&D-2022-II-58, methylone HCl], in [7], the “form changes, post-DVS vs pre-DVS XRPD pattern” value is reported as “No form changes”.

The term IC50 denotes the concentration that gives 50% inhibition. Higher therefore signals a need for much substance. As usually defined, the Ki is the equilibrium dissociation constant of an inhibitor or competing ligand from its target. Read a high Ki as lower affinity. As a reminder, the EC50 is the concentration needed to bring the measured effect to its halfway point. Read a high EC50 as weaker potency. The Tmax is the time at which the peak concentration occurs. Usually Cmax stands for the highest concentration seen after dosing.
